For test [1], the system named is Aspergillus fumigatus transformed cells containing the integrated PglaA promoter (AfHIS3). Description: Titration against 3-aminotriazole of PglaA-AfHIS3 promoter replacement strain. It is filed as cell-based. An excerpt: Aspergillus fumigatus is sensitive to the catalase inhibitor 3-aminotriazole (3-AT), which targets the product of the HIS3 gene. The concentration of 3-AT sufficient to inhibit growth of Aspergillus fumigatus is thusly dependent on the amount of HIS3 gene product present in the cells.
For instance, culturing the transformed cells containing the integrated PglaA promoter in a medium supplemented with different carbon sources or ratios of carbon sources allows the amount of AfHIS3 gene product to be increased or decreased relative to endogenous levels to generate cells that are more or less sensitive to 3-AT based on the amount of HIS3 gene product. It is known, for example, that transcription from the PglaA promoter is induced in the presence of maltose, repressed in the presence of xylose and intermediate levels of activity are detected from cells grown on glucose. By adjusting the ratio of maltose to xylose in the culture medium, the amount of transcription may be titrated, at least in a step-wise manner, to adjust levels of transcript in the cell.

The test system of test [2] is bar-coded strains bearing heterozygous mutations in HIS3, TUB1, ALG7, and ERG11. The following applies: Saccharomyces cerevisiae, mixed population, challenged with respective compound; cited from earlier work.
The test system of test [3] is invasive aspergillosis (IA). The following applies: patients with invasive aspergillosis; cited from earlier work.
In test [4] the test system is wild-type Aspergillus fumigatus strain CEA 10. As to the kind of experiment: Azole sensitivity on agar gradient plates, wild-type strain. To be noted: versus AfERG11 and AfERG11β knockout strains. It is filed as cell-based. The source says:
(§1) Aspergillus fumigatus strains were constructed in which either the AfERG11 gene or the AfERG11β gene had been “knocked out.” Each of these strains was compared to the wild-type Aspergillus fumigatus strain CEA 10 with respect to its sensitivity, as analyzed on agar gradient plates, to two representative azole compounds, ketoconazole and itraconazole.

In test [5] the test system is AfERG11β knockout strain and AfERG11α knockout strain. Description: Azole sensitivity on agar gradient plates, knockout strains. Type of test: cell-based, Aspergillus fumigatus.
Description: as §1

Take `Nc1nc[nH]n1` [3-AT, 3-aminotriazole]: the “sensitivity of Aspergillus fumigatus to 3-aminotriazole” value in test [1] (Aspergillus fumigatus, general statement) is recorded as “sensitive”. Besides, the “resistance in the presence of 3-AT” value in test [1] (cells grown in the presence of maltose (e.g. 2% maltose), PglaA induced) is listed as “increased resistance”. In test [1] (cells grown in the presence of xylose (e.g. 1% xylose), PglaA repressed), the “resistance to 3-AT” value is on record as “decreased resistance”. In addition, the “sensitivity of heterozygous drug-target strain compared with other heterozygote bar-coded strains” value in test [2] is listed as “significantly greater sensitivity”.

Turning to `C[C@@H]1[C@H](O)[C@@H](C)/C=C/C=C/C=C/C=C/C=C/C=C/C=C/[C@H](O[C@@H]2O[C@H](C)[C@@H](O)[C@H](N)[C@@H]2O)C[C@@H]2O[C@](O)(C[C@@H](O)C[C@@H](O)[C@H](O)CC[C@@H](O)C[C@@H](O)CC(=O)O[C@H]1C)C[C@H](O)[C@H]2C(=O)O` [AmB, amphotericin B], the “overall success rate of therapy for IA” value in test [3] is 34%.

Consider `CCCCNC(=O)n1c(NC(=O)OC)nc2ccccc21` [benomyl], for which the “sensitivity of heterozygous drug-target strain compared with other heterozygote bar-coded strains” value in test [2] is reported as “significantly greater sensitivity”.

In the case of `OC(Cn1cncn1)(Cn1cncn1)c1ccc(F)cc1F` [fluconazole], in test [2], the “sensitivity of heterozygous drug-target strain compared with other heterozygote bar-coded strains” value is given as “significantly greater sensitivity”.

`CC(=O)N1CCN(c2ccc(OCC3COC(Cn4ccnc4)(c4ccc(Cl)cc4Cl)O3)cc2)CC1` (stereo not shown) [ketoconazole]: in test [4], the “resistance of wild-type strain CEA 10 compared with either knockout strain” value is recorded as “more resistant”. In test [5], the “resistance of AfERG11β knockout strain compared with AfERG11α knockout strain” value is recorded as “more resistant”.

On to tunicamycin, for which the “sensitivity of heterozygous drug-target strain compared with other heterozygote bar-coded strains” value in test [2] is listed as “significantly greater sensitivity”.

(Values after US20030119013A1, “Identification of essential genes of Aspergillus fumigatus and methods of use” (priority 2001, published 2003).)
